Data taken from patent US4479954A, “Piperazine substituted carboxamide derivatives, compositions and method of use” (Eisai Co., Ltd., priority 1981, dated 1984).
Where a name gives a salt, the structure may show the parent alone. Read-outs that look alike come from different tables or passages of the source.

Key:
[1] = test system: DDY strain mice; assay: Acute Toxicity Test, oral, mice (Experiment 2); format: in vivo; conditions: observation within one week; for Acute toxicity, number of dead cases / number of cases tested, 500 mg/kg: 500 mg/kg oral; for Acute toxicity, number of dead cases / number of cases tested, 1,000 mg/kg: 1,000 mg/kg oral
Procedure: More specifically, when an experiment was carried out in DDY strain mice, there was no case of death at a dosage of 1,000 mg/kg, as shown below.
DDY strain mice (weighing 20-25 g) maintained on mice chow and water adlibitum in a constant temperature room (22°-24° C.) for at least a week were used.
An acute toxicity test was carried out by oral administration of the compounds at two dosage levels of 500 mg/kg and 1,000 mg/kg. Observation of dead cases were made within one week. In table 2, the denominator of each value indicates the number of cases tested and the numerator indicates the number of dead cases. Compounds A, B, C, D, E and F correspond to Compoounds A-F in Experiment 1 respectively.

[2] = test system: sub-diabetic rats; assay: Improvement of glucose tolerance in STZ sub-diabetic rats (Experiment 1); format: in vivo, Male Sprague-Dawley rats; conditions: for Improvement of glucose tolerance at 10 mg/kg / inhibition in vivo at 10 mg/kg: Rattus norvegicus; for Improvement of glucose tolerance at 10 mg/kg: po; for inhibition in vivo at 10 mg/kg: 10 mg/kg oral, STZ sub-diabetic rats, relative to control group as 100%
Procedure: Male Sprague-Dawley rats (weighing 300-350 g) were maintained on rat chow and water adlibitum in a constant temperature room (22°-24° C.) for at least a week prior to use in studies. Sub-diabetic rats*^1 were obtained by intrevenous injection of 20 mg/kg of streptozotocin (STZ). The compounds were orally administered in 5% gum arabic suspension in sub-diabetic rats. 3 g/kg of glucose was administered intraperitoneally an hour later. Blood samples were taken from the tail vein, and the blood sugar was measured by the anthrone method [Ui.
*1: STZ sub-diabetic rats are obtained by administering a low dose of streptozotocin (20 mg/kg) dissolved in physiological saline containing 1 mM citrate buffer (pH 4.5) into the superficial cutaneous vein.
*^2 The improvement percent of glucose tolerance means a percentage o
blood sugar of the group treated with the test compounds each after
glucose load (1, 2 and 3 hours after) relative to that of the control

[3] = 1 h, read-out: Improvement percent of glucose tolerance, 1 hr.
[4] = 2 h, read-out: Improvement percent of glucose tolerance, 2 hrs.
[5] = 3 h, read-out: Improvement percent of glucose tolerance, 3 hrs.
[6] = 1 hr. after glucose load (3 g/kg i.p.), read-out: Improvement percent of glucose tolerance, 1 hr.
[7] = 2 hrs. after glucose load (3 g/kg i.p.), read-out: Improvement percent of glucose tolerance, 2 hrs.
[8] = 3 hrs. after glucose load (3 g/kg i.p.), read-out: Improvement percent of glucose tolerance, 3 hrs.

Structure (SMILES) | Acute toxicity, number of dead cases / number of cases tested, 500 mg/kg [1] | Acute toxicity, number of dead cases / number of cases tested, 1,000 mg/kg [1] | Improvement of glucose tolerance at 10 mg/kg [2, 3] [%] | Improvement of glucose tolerance at 10 mg/kg [2, 4] [%] | Improvement of glucose tolerance at 10 mg/kg [2, 5] [%] | inhibition in vivo at 10 mg/kg [2, 6] [%] | inhibition in vivo at 10 mg/kg [2, 7] [%] | inhibition in vivo at 10 mg/kg [2, 8] [%] | Improvement percent of glucose tolerance after 1 hour ([2]; 39 mg/kg, 6 rats, after 1 hour, method similar to Experiment 1) [%] | Improvement percent of glucose tolerance after 2 hours ([2]; 39 mg/kg, 6 rats, after 2 hours, method similar to Experiment 1) [%] | Improvement percent of glucose tolerance after 3 hours ([2]; 39 mg/kg, 6 rats, after 3 hours, method similar to Experiment 1) [%]
CCCCCC/C=C/C(=O)OC(CN1CCN(c2ccccn2)CC1)CN1C(=O)[C@H]2CC=CC[C@H]2C1=O.O=C(O)/C=C\C(=O)O.O=C(O)/C=C\C(=O)O (relative stereo) [Compound D, N-[2-(trans-2-Nonenoyloxy)-3-{4-(2-pyridyl)piperazin-1-yl}propyl]cis-cyclohex-4-ene-1,2-dicarboximide dimaleate] | 0/5 | 0/5 | 0 | 13 | 26 | – | – | – | – | – | –
O=C(O)/C=C\C(=O)O.O=C(OC(CN1CCN(c2ccccn2)CC1)CN1C(=O)[C@H]2CC=CC[C@H]2C1=O)c1cccnc1 (relative stereo) [Compound E, N-[2-Nicotinoyloxy-3-{4-(2-pyridyl)piperazin-1-yl}propyl]cis-cyclohex-4-ene-1,2-dicarboximide maleate] | 0/5 | 0/5 | 11 | 20 | 9 | – | – | – | – | – | –
CCCCCCCCCCCCCCCC(=O)OC(CN1CCN(c2ccccn2)CC1)CN1C(=O)[C@H]2CC=CC[C@H]2C1=O (relative stereo) [Compound G, N-[2-Palmitoyloxy-3-{4-(2-pyridyl)piperazin-1-yl}propyl]cis-cyclohex-4-ene-1,2-dicarboximide dimaleate] | – | – | – | – | – | 3 | 15 | 24 | – | – | –
O=C(O)/C=C\C(=O)O.O=C(OC(CN1CCN(c2ccccn2)CC1)CN1C(=O)CCC1=O)C1CCCCC1 (stereo not drawn) [Compound A, N-[2-Cyclohexylcarbonyloxy-3-{4-(2-pyridyl)piperazin-1-yl}propyl]succinimide maleate] | 0/5 | 0/5 | 12 | 25 | 19 | – | – | – | – | – | –
CCCCCCCCCC(=O)OC(CN1CCN(c2ccccn2)CC1)CN1C(=O)C2CC=CCC2C1=O (stereo not drawn) [Compound B, N-[2-n-Decanoyloxy-3-{4-(2-pyridyl)piperazin-1-yl}propyl]cis-cyclohex-4-ene-1,2-dicarboximide dimaleater] | 0/5 | 0/5 | – | – | – | 15 | 23 | 26 | – | – | –
CCCCCC(=O)OC(CN1CCN(c2ccccn2)CC1)CN1C(=O)C2CC=CCC2C1=O (stereo not drawn) [Compound C, N-[2-n-Caproyloxy-3-{4-(2-pyridyl)piperazin-1-yl}propyl]cis-cyclohex-4-ene-1,2-dicarboximide dimaleate] | 0/5 | 0/5 | – | – | – | 7 | 17 | 23 | – | – | –
O=C(OC(CN1CCN(c2ccccn2)CC1)CN1C(=O)[C@@H]2[C@H](C1=O)[C@@H]1C=C[C@H]2C1)C1CCCCC1 (stereo partly drawn) [Compound F, N-[2-Cyclohexylcarbonyloxy-3-{4-(2-pyridyl)piperazin-1-yl}propyl]endo-cis-bicyclo[2,2,1]hept-5-ene-2,3-dicarboximide dimaleate] | 0/5 | 0/5 | – | – | – | 14 | 25 | 34 | – | – | –
O=C(OC(CN1CCN(c2ccccn2)CC1)CN1C(=O)c2ccccc2C1=O)c1cccnc1 (stereo not drawn) [Compound H, N-[2-Nicotinoyloxy-3-{4-(2-pyridyl)piperazin-1-yl}propyl]phthalimide maleate] | – | – | – | – | – | 19 | 23 | 27 | – | – | –
CCC(=O)OC(CN1CCN(c2ccccn2)CC1)CN1C(=O)c2ccccc2C1=O (stereo not drawn) [Compound I, N-[2-Propionyloxy-3-{4-(2-pyridyl)piperazin-1-yl}propyl]phthalimide maleate] | – | – | – | – | – | 14 | 26 | 31 | – | – | –
CCCCCC(=O)OC(CN1CCN(C)CC1)CN1C(=O)C2CC=CCC2C1=O (stereo not drawn) [Compound J, N-{2-n-Caproyloxy-3-(4-methylpiperazin-1-yl)propyl}cis-cyclohex-4-ene-1,2-dicarboximide dimaleate] | – | – | – | – | – | 0 | 21 | 32 | – | – | –
O=C(OC(CN1CCN(c2ccccn2)CC1)CN1C(=O)[C@@H]2[C@H](C1=O)[C@@H]1C=C[C@H]2C1)C1CCCCC1 (stereo partly drawn) [Example 7, N-[2-Cyclohexylcarbonyloxy-3-{4-(2-pyridyl)piperazin-1-yl}propyl]-endo-cis-bicyclo[2,2,1]hept-5-ene-2,3-dicarboximide dihydrochloride] | – | – | – | – | – | – | – | – | 23 | 33 | 37
